Measurements taken from patent publication US7115624B1, “Method of inhibiting protein tyrosine phosphatase 1B and/or T-cell protein tyrosine phosphatase 4 and/or other PTPases with an Asp residue at position 48” (Novo Nordisk A/S, priority 1999, dated 2006).
Where a chain is given by its changes, count along the chain named. pKi: −log10 of the molar value. Where two headings read alike, the source gives them in different places.

Tests used:
Format in all cases: biochemical
[1] = biological target: T1, PTPH1 (Homo sapiens, UniProt P26045); test: PTPase inhibition, p-nitrophenyl phosphate substrate, Ki; details: pH 7.0; wt (Table 4)
T1 sequence (P26045 646-901 limits assumed): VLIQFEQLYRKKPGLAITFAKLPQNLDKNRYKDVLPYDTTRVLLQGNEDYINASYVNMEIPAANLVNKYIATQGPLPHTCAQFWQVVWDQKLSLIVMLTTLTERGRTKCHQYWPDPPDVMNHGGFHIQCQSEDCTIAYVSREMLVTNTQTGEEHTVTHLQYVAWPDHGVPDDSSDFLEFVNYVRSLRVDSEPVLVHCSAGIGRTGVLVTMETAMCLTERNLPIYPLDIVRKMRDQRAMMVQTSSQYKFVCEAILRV
From the text: (§1) To test directly, whether the above compound was addressing the proposed region of PTP1B, Compound N was subjected to detailed enzyme kinetic analyses using a set of wildtype (wt) and mutant PTPs. Two enzymes, PTPα and PTPH1, were chosen as representatives for PTPs with bulky side chains in the 259 position. Using a combination of wt and PTP mutants it has previously been shown that Gln259 in PTPα, in addition to its direct effect, also indirectly influences the binding of inhibitors and substrates, most likely due to a negative influence on the rotational freedom of the side chain of Gln262 (Peters et al., J. Biol. Chem. 275: 18201–18209 (2000)). As described above, selectivity can be obtained by introducing a basic nitrogen into 2-(oxalylamino)-4,5,6,7-tetrahydrobenzo[b]thiophene-3-carboxylic acid that causes attraction in PTP1B due to salt bridge formation to Asp48 and repulsion against PTPs with an asparagine in the 48 position, such as PTPα. To analyze if the current approach based on steric hindrance is generally applicable, it was decided to include a PTP with an aspartic acid in position 48. PTPH1, which like PTP1B is an intracellular enzyme with one domain only, was selected for these studies. The results of these studies are shown below (Table 4).
(§2) The assay conditions are as follows.

[2] = biological target: T2, PTPα (Homo sapiens, UniProt P18433); test: as above; details: pH 7.0; wt (Table 4)
T2 construct: PTPα D1
From the text: as §1, §2

[3] = biological target: T3, PTP1B G259M (Homo sapiens, UniProt P18031, G259M); test: Enzyme kinetic analysis with mutant PTPs, Ki; details: pH 7.0
T3 sequence (P18031 1-435 G259M): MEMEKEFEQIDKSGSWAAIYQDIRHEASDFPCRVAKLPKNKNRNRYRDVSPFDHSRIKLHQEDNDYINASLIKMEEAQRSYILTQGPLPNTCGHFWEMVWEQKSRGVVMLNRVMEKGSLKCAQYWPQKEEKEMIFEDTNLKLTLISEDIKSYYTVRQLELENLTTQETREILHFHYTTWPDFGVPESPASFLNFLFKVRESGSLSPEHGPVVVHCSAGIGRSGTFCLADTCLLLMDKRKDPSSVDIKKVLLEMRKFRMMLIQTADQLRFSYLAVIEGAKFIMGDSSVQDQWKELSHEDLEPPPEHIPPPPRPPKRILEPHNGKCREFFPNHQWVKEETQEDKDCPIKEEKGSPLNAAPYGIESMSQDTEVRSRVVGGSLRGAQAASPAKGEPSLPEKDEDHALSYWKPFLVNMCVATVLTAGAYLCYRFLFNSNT
From the text: as §1, §2

[4] = biological target: T4, PTP1B G259Q (Homo sapiens, UniProt P18031, G259Q); test: Enzyme kinetic analysis with mutant PTPs, Ki; details: pH 7.0
T4 sequence (P18031 1-435 G259Q): T3 sequence (P18031 1-435 G259M) with M259Q
From the text: as §1, §2

[5] = biological target: T5, PTPH1 M259G (Homo sapiens, UniProt P26045, M883G); test: Enzyme kinetic analysis with mutant PTPs, Ki; details: pH 7.0
T5 sequence (P26045 628-913 M883G limits assumed): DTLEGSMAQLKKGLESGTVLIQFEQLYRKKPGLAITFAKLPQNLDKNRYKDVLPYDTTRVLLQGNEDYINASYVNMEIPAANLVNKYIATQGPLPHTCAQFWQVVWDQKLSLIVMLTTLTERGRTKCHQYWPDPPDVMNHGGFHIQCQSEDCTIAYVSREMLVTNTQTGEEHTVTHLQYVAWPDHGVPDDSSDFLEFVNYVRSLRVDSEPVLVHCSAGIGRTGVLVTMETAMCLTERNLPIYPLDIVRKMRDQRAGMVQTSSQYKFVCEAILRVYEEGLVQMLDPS
From the text: as §1, §2

[6] = biological target: T2, PTPα; test: PTPase inhibition, p-nitrophenyl phosphate substrate, Ki; details: pH 7.0 (Table 5); read-out: Ki values, PTPα

T2 sequence (P18433 241-501 limits assumed): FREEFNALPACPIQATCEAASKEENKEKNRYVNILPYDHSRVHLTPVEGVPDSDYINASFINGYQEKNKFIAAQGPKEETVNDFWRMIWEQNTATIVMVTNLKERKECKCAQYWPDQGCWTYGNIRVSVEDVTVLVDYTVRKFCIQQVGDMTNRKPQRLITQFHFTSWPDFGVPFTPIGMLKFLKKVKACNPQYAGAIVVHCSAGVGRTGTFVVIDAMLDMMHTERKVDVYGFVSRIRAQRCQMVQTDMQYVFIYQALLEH

`O=C(O)C(=O)Nc1sc2c(c1C(=O)O)CCOC2COC1=NS(=O)(=O)c2ccccc21` (stereo not drawn) [Compound N, 7-(1,1-dioxo-1H-benzo[d]isothiazol-3-yloxymethyl)-2-(oxalyl-amino)-4,7-dihyd ro-5H-thieno[2,3-c]pyran-3-carboxylic acid] was tested, and the pKi [1] was 4.26, the pKi [2] was < 3.30 and the pKi [3] was 4.26. For the same compound, the pKi [4] was 4.19, the pKi [5] was 4.92 and the pKi [6] was 3.15.
